Measurements from patent US9114158B2, “Compounds and methods of use in ablative radiotherapy” (The Johns Hopkins University, priority 2011, dated 2015).

Columns and labels:
[1] = system: A549; test: MTS assay, lung cancer cell line A549; assay type: cell-based
Procedure: FIG. 5 is a plot showing the effect of RK-33 on two lung cancer cell lines. Lung cancer cell lines were incubated with different concentrations of RK-33. At day 3, MTS assays were performed to determine the percentage of metabolically active cells. The experiments were repeated in triplicate. The IC50 values for H23 and A549 are 3.5 and 5 μM respectively. […] Experiments were performed in triplicate. To study the effects of RK-33 on cell growth and proliferation, lung cancer cell lines (H23 and A549) were used for the initial studies. […] To the best of our knowledge, this is the first data set of evaluating the efficacy of a small molecule inhibitor of DDX3 to kill lung cancer cells.

[2] = molecular target: T1, DDX3 (Homo sapiens, UniProt O00571); test: DDX3 helicase unwinding assay with duplex oligos; assay type: biochemical; conditions: 100 μM RK-33, over a period of 80 minutes
T1 construct: made in house; host or cells: pET system (Novagen); E. coli is my own knowledge of the pET system
T1 sequence (O00571 whole entry): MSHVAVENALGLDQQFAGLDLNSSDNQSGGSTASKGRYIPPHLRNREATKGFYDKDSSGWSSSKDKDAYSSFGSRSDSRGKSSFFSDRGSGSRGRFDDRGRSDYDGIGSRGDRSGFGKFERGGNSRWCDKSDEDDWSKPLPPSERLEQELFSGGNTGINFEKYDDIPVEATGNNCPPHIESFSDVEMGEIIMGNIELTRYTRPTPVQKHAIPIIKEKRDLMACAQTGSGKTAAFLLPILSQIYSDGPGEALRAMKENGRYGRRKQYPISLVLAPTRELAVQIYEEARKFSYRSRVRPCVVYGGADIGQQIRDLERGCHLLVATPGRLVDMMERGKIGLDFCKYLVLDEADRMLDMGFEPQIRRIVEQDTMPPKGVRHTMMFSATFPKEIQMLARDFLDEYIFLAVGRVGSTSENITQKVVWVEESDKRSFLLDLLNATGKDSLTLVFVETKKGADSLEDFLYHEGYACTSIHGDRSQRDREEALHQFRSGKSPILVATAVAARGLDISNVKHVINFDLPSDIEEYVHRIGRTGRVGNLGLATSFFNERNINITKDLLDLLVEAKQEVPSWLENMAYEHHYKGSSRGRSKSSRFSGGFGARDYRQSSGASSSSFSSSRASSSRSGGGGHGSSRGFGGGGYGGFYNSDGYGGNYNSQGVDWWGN
Description: FIG. 4 is a chart showing RK-33 inhibits helicase activity of DDX3.
Generating small molecular inhibitors of DDX3 function. As loss of DDX3 function abrogated colony forming abilities along with increased expression in lung carcinoma samples, a search was initiated to identify molecules that could target a functional substrate binding site of DDX3 protein. Initial work generated a fused diimidazodiazepine ring molecule (RK-33) to target RNA helicase. To confirm the functional activity of RK-33 on DDX3, an in vitro assay was carried out to determine the effects of RK-33 on helicase activity. DDX3 protein was synthesized using the pET system from Novagen. Following DDX3 purification, the unwinding assays were performed using duplex oligos, purified DDX3 and RK-33. Quantification was done by evaluating the pixel density of the native duplex oligos and the unwound oligos.

[3] = Toxicity of RK-33 in SCID mice, pathological examination after necropsy; assay type: in vivo
[4] = system: Cells engineered to express a hypoxia induced red fluorescent protein (tdTomato); test: Cell death under hypoxic conditions (CoCl2 hypoxia mimetic); assay type: cell-based; conditions: CoCl2 24 hours, then RK-33 72 hours
Procedure: Cells engineered to express a hypoxia induced red fluorescent protein (tdTomato) were incubated with CoCl2 (hypoxia mimetic compound) for 24 hours, following which RK-33 was added and incubated for 72 hours. Photomicrographs were taken at 20×. Experiments were repeated twice. Effect of hypoxia on the functional activity of RK-33 to induce cell death. During solid tumor biogenesis, regions of hypoxia develop within the tumor due to inadequate and poorly formed vasculature. […] In addition, some have posited that tumor hypoxia is a major limiting factor of the curability by SABR at lower radiation dose. […] To evaluate efficacy of RK-33 to induce cell death under hypoxic conditions, cells were incubated with CoCl2 (hypoxia mimetic compound) for 24 hours, following which RK-33 was added and incubated for 72 hours.

[5] = system: A549 cells; test: Combination of RK-33 and radiation in A549 cells, Chou-Talalay analysis; assay type: cell-based; conditions: 4 and 6 μM RK-33 with 2 and 7 gray of radiation
Procedure: FIG. 8 is a set of bar graphs depicting the effect of radiation and RK-33 on A549 cells. […] Experiments were performed in triplicate.
Clonogenic assays. About 1×10^5 A549 cells were treated with RK-33 (1-6 μM) and to increasing dose of IR (1-20 Gy). After 24 hours, 500 cells from each combination treatment will be plated into a 6-well plate. Following incubation for 1-3 weeks, colonies were fixed in glutaraldehyde (6.0% v/v), stained with crystal violet (0.5% w/v) and counted using a stereomicroscope. Clusters of >50 cells (i.e., six cell doubling times) were scored as colonies. The amount of radiosensitization by RK-33 was determined using the Chou-Talalay equation to determine the combination index (CI). A CI 0.9-1.1 was indicative of additivity while a CI <0.9 indicated synergism. The survival curves, S, were fit to the linear-quadratic model S=exp(−αD-βD2) to determine classical parameters of radiation sensitivity.
Combinatorial effect of RK-33 and radiation in lung cancer cell line, A549. Given the current treatment protocol for lung cancer patients, which includes chemotherapy and radiation, the cell killing abilities of RK-33 was evaluated in combination with radiation in a chemotherapy/radiation resistant lung cancer cell line, A549 (FIG. 7). […] For this experiment, RK-33 below the IC50 value was used to determine if there was any additive or synergistic effect. […]

[6] = Biodistribution of RK-33 in mice by LC/MS/MS; assay type: in vivo; conditions: I.P. single dose of 20 mg/kg; 30 minutes, 60 minutes and 24 hours
Description: FIG. 9 is a set of curves illustrating the biodistribution of RK-33 in mice at different time intervals using an LC/MS/MS method. A total of five mice per time point were used for this study.
Analysis of the toxicity of RK-33 in SCID mice. […] Subsequently, we carried out pharmacokinetics in multiple tissue compartments. For this a LC/MS/MS method was developed for determination of RK-33 in mouse plasma (FIG. 9-inset). Sample preparation involved acetonitrile precipitation and separation of RK-33 and the internal standard, temazepam, was achieved on a Waters Xterra column. […] The animals were injected I.P. (single dose of 20 mg/kg with five animals per arm) and the tissue harvested at different time intervals (30 minutes, 60 minutes and 24 hours) and analyzed.

[7] = system: H23; test: MTS assay, lung cancer cell line H23; assay type: cell-based
Procedure: FIG. 5 is a plot showing the effect of RK-33 on two lung cancer cell lines. Lung cancer cell lines were incubated with different concentrations of RK-33. At day 3, MTS assays were performed to determine the percentage of metabolically active cells. The experiments were repeated in triplicate. The IC50 values for H23 and A549 are 3.5 and 5 μM respectively.
To study the effects of RK-33 on cell growth and proliferation, lung cancer cell lines (H23 and A549) were used for the initial studies. […] To the best of our knowledge, this is the first data set of evaluating the efficacy of a small molecule inhibitor of DDX3 to kill lung cancer cells.

[8] = system: lung tumors in CRT mice; test: RK-33 and radiation in CRT autochthonous lung tumor mice, microCT tumor volume; assay type: in vivo
Description: FIG. 11 is a bar graph showing the chemosensitization of RK-33 with radiation to reduce lung tumors in CRT mice. Following RK-33 and radiation treatment, the animals were imaged using microCT (data not shown). The bar graph depicts the reduction of lung tumor volume in n=8 animals per group. The tumor volumes were quantified from the CBCT data set using the image and volume contouring utility of the Pinnacle3 Radiation Therapy Planning software v.8.1y (Philips Inc., Madison, Wis.) used in the clinic for human patients. Each CBCT data set contains full 3D volumetric data for the tumor burden estimation.
Generating the CRT mice and drug treatment. As shown in the results, the functional utility of CRT mice was validated. CRT mice are generated from combinations of bi-transgenic mice; e.g., CT X CR. CRT mice were activated shortly after weaning, four-five weeks old, by doxycycline administered in their drinking water (up to 2 mg/ml) in a total volume of 350 ml to simultaneously activate both Twist1 and KrasG12D transgenes. Fresh doxycycline containing water was administered weekly. Ten weeks post transgene induction, the mice were imaged by microCT to determine tumor load. Induction of the transgenes and imaging the tumor load by microCT were continuous (weekly) till the end of the experiment. Following induction and establishment of lung tumors, RK-33 (1 mM equivalent to 40 mg/Kg) was injected intraperitoneally in combination with radiation at schedules described in the table below. The number of animals used in each group was 25.
MicroCT procedures. Presently a small animal radiation research platform for radiation treatment of animals was developed. […]
Thoracic image-guided irradiation. […] Fifteen Gy radiation calculated at the isocenter was delivered using a single posterior field. […]
Endpoints for in vivo experiments. […] Animals following treatment are monitored daily by animal care staff and 3×/week by investigators for signs of mortality and morbidity. […]

Row | reduction of unwinding of the duplex oligos [2] | IC50 ([1]; Homo sapiens, 72 h, A549, MTS at day 3) | brain exposures [6] | IC50 ([7]; Homo sapiens, NCI-H23, 72 h, H23, MTS at day 3) | Compound | sensitivity of A549 cells in MTS assay [1] | pathological examination of all tissues following necropsy [3] | activity to induce cell death under hypoxic conditions [4] | effect on cell growth and proliferation ([1]; A549, 8 μM RK-33) | combination effect with radiation on cell death (Chou-Talalay) [5] | target tissue concentrations [6] | effect on cell growth and proliferation ([7]; H23, 8 μM RK-33) | tumor volume reduction, RK-33 combined with conventional fractionated radiation ([8]; 3 Gy x10) | tumor response, single agent ([8]; RK-33 1 mM i.p. 3 times a week alone, microCT) | tumor response, RK-33 combined with SABR ([8]; RK-33 1 mM i.p. 3 times a week, 1 week before and 1 week after 15 Gy whole thorax SABR, microCT and H&E)
1 | – | – | – | – | N.N.O=C([O-])C1(C(=O)[O-])CCC1.[Pt+2] [carboplatin, reference compound] | resistant | – | – | – | – | – | – | – | – | –
2 | at least 60% | 5 µM | well managed | 3.5 µM | COc1ccc(Cn2c3ncnc4c(ncn4Cc4ccc(OC)cc4)c-3nc2=O)cc1 [RK-33] | sensitive | no tissue damage | retain its activity both under normoxic and hypoxic conditions | efficiently ablate | significant synergistic effect | well above effective killing concentrations | efficiently ablate | no synergy | stasis or perhaps slight regression | dramatic tumor regression
